Experimental data reported in US12061201B2, “Fluorescent probes for the visualization of FtsZ in gram-positive and gram-negative bacterial pathogens” (Rutgers, The State University of New Jersey, priority 2019, dated 2024).

What was measured:
Test in all cases: Fluorescence microscopy FtsZ visualization in live cells
Assay type in all cases: cell-based
Details in all cases: 1 μg/mL (1.3 μM) BOFP, 5 minutes
[1] = target: T1, FtsZ in E. faecalis ATCC 29212 cells (Enterococcus faecalis, UniProt O08439)
T1 construct: endogenous in cells; host or cells: E. faecalis ATCC 29212
T1 sequence (O08439 whole entry): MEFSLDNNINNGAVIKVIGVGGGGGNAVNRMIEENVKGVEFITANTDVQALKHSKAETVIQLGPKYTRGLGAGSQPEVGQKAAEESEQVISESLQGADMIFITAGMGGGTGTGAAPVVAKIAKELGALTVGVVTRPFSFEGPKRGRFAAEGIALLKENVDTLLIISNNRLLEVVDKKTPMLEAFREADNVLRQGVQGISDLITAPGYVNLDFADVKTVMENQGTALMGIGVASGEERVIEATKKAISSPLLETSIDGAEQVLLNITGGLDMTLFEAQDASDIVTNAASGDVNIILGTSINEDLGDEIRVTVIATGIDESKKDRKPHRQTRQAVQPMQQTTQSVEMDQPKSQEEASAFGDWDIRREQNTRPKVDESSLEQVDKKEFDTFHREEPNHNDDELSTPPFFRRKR
Description: (§1) Fluorescence microscopy assay for visualizing FtsZ and monitoring cell division in live Gram-positive and Gram-negative bacterial cells using BOFP. All fluorescence microscopy experiments were conducted using an Olympus BX50 microscope equipped with an X-cite Exacte 200W mercury lamp, a 100× Olympus UPLSAPO oil immersion objective (1.40 aperture), and a Chroma ET-EGFP (FITC/Cy2) filter. Images were captured using a QImaging Retiga R3 charge-coupled device (CCD) camera and the Ocular-Version 2.0 software package (QImaging).
(§2) For visualizing FtsZ in Gram-positive bacteria using BOFP, the bacterial cells were grown to log-phase in media suitable for each individual pathogen. Specifically, S. aureus NRS705 was grown in tryptic soy broth (TSB), E. faecalis ATCC 29212 and E. faecium ATCC 19434 were grown in lactobacilli MRS broth, S. agalactiae ATCC 12386 and S. pneumoniae ATCC 49619 were grown in TH broth, and S. pyogenes ATCC 19615 was grown in CAMH broth supplemented with 3% (v/v) LHB. For each Gram-positive bacterial strain, a total of 1 mL of cell culture was centrifuged at 15,000×g for 1 minute and washed 2-3 times with 1 mL of PBS. After the final wash, the pelleted cells were resuspended in 500 μL of PBS containing 1 μg/mL of BOFP and incubated in the dark for 5 minutes at room temperature. The cells were then centrifuged at 15,000×g for 1 minute, washed twice with 1 mL of PBS, and subsequently resuspended in 200 μL of PBS. 8 μL of this final cell suspension was then spread on a 0.25 mm layer of 1.5% high-resolution agarose (Sigma) in PBS, which was mounted on a standard 75×25×1 mm microscope slide (Azer Scientific) using a 1.7×2.8×0.025 cm Gene Frame (ThermoFisher). A 24×40 mm cover slip (Azer Scientific) was then applied to the agarose pad to prepare the slide for microscopic visualization.

[2] = system: FtsZ in S. pyogenes ATCC 19615 cells
Description: as §1, §2

[3] = target: T2, FtsZ in S. aureus NRS705 cells (Staphylococcus aureus, UniProt P0A031)
T2 construct: endogenous in cells; host or cells: S. aureus NRS705
T2 sequence (P0A031 1-390): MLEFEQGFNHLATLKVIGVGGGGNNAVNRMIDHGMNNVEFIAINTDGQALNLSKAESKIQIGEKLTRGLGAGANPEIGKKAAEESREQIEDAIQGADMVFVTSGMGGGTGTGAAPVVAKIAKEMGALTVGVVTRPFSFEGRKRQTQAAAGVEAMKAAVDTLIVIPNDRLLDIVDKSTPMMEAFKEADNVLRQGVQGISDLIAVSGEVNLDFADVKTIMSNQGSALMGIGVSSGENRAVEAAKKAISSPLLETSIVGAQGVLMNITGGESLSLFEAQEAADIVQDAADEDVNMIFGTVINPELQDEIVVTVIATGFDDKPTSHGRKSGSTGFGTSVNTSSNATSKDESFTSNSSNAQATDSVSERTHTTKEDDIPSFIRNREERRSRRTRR
Description: as §1, §2

[4] = system: FtsZ in S. pneumoniae ATCC 49619 cells
Description: as §1, §2

[5] = system: FtsZ in S. agalactiae ATCC 12386 cells
Description: as §1, §2

## CC1=CC(C)=[N+]2C1=Cc1ccc(CCC(=O)OCC(Oc3ccc(F)c(C(N)=O)c3F)c3nc(-c4ccc(C(F)(F)F)cc4)c(Br)o3)n1[B-]2(F)F (centres unmarked) [BOFP, 2-(5-bromo-4-(4-(trifluoromethyl)phenyl)-oxazol-2-yl)-2-(3-carbamoyl-2,4-difluorophenoxy)ethyl 3-(5,5-difluoro-7,9-dimethyl-5H-5λ^4,6λ^4-dipyrrolo[1,2-c:2′,1′-f][1,3,2]diazaborinin-3-yl)propanoate]
[1]
  FtsZ labeling (fluorescence staining) in live cells: bright bands of fluorescence staining were clearly visible at midcell
[2]
  FtsZ labeling (fluorescence staining) in live cells: bright bands of fluorescence staining were clearly visible at midcell
[3]
  FtsZ labeling (fluorescence staining) in live cells: bright bands of fluorescence staining were clearly visible at midcell
[4]
  FtsZ labeling (fluorescence staining) in live cells: bright bands of fluorescence staining were clearly visible at midcell
[5]
  FtsZ labeling (fluorescence staining) in live cells: bright bands of fluorescence staining were clearly visible at midcell
